Tests used:
[1] = test system: caveolin-1; test: Caveolin-1 IHC staining of xenograft tumors; format: in vivo, SCID/bg mice; settings: xenograft tumors of mice treated BID IP 400 mg/kg, 3 days
Description: We evaluated the effect of EWS-FLI1 in animals treated with YK-4-279 upon caveolin-1, a recognized direct gene target whose expression is increased by EWS-FLI1 [22, 23]. […] In addition, the staining pattern changes from membraneous to a more diffuse pattern (Figure 5A).
(§1) Two million A4573 or SK-ES Ewing's sarcoma cells in 0.1 mL were injected into an orthotopic paraosseous location, adjacent to the left proximal tibia, in 5-week-old female severe combined immunodeficient-beige (SCID/bg) mice (Harlan Laboratories, Inc., Indianapolis, IN). After primary tumors reached 250 – 300 mm^3 size, mice were randomized and received intraperitoneal injection (IP) with vehicle control (0.25% Lecithin solution or DMSO), (S)-YK-4-279, (R)-YK-4-279 or racemic YK-4-279 at a dose of 400 mg/kg twice a day (BID) for 7 days in a week. The tumor volume was determined by the formula (D × d2/6) × p, where D was the longer diameter and d was the shorter diameter. Tumor volume was monitored every day by caliper until the tumor size reaches 1cm^3. Mice were euthanized and primary tumors were collected. […]
Five micron sections from formalin fxed paraffin embedded tissues were de-paraffinized with xylenes and rehydrated through a graded alcohol series. […] The sections were evaluated, in blinded fashion two times, by a pathologist (B.K.).

[2] = test system: A4573 xenograft; test: Orthotopic mouse xenograft model, A4573, IP dosing; format: in vivo, SCID/bg mice; settings: for Tumor histology (hematoxylin and eosin): A4573 tumors, two hours following the 6th dose; for Tumor histology (hematoxylin and eosin) / Regression of tumor volume over 3 days: BID IP 400 mg/kg; for Regression of tumor volume over 3 days: A4573 xenograft, 3-day, six-dose
Description: A series of models that combined results from in vitro colony assays and in vivo PK data were developed to evaluate several potential dosing schemes for the mice (Supplementary Figures 1A-E). We selected an IP dosing strategy (twice daily (BID) injections of […] racemic mixture) that would maintain a 3 ¼M plasma levels for greater than 72 hours in the mice (Figure 3A). With this IP dosing regimen, xenograft growth of A4573 was 70% less in the YK-4-279 treatment group compared to vehicle control (Figure 3B, p=0.04). […] To confrm the impact of YK-4-279 treatment on xenograft growth, mice with SK-ES xenografts were treated with racemic, (S), or (R)-YK-4-279 until control tumors reached 1 cm^3. Xenograft growth was reduced for those mice receiving both racemic and (S)-YK-4-279 over the control (Figure 3D, p=0.02 and p=0.003, respectively). […] Tumors were analyzed for drug levels of racemic, (R)-, and (S)-YK-4-279. Three of four mice treated with racemic compound had tumor levels of (S)-YK-4-279 that ranged from ~12-35 ¼g eq/g, which correlated with tumor growth ratios of less than 1.0, indicating response to the drug (Figure 3F). Those animals treated with the active (S)-YK-4-279 levels had tumor levels that were below 10 ¼g eq/g (Figure 3F). Tumor levels of (R)-YK-4-279 are also provided (Supplementary Figure 1F).
In order to evaluate tumors from animals treated in a similar fashion, including resection prior to central necrosis in controls, a 3-day, six-dose, experiment was executed. Treatment was initiated with racemic, (S)-, or (R)-YK-4-279 using BID IP administration at 400 mg/kg when tumors were well established at a volume of 250 to 300 mm^3. Both ES models treated with either racemic or (S)-YK-4-279 regressed by 25–30% of tumor volume over 3 days, while tumors grew in control and (R)-YK-4-279 treated animals (Figures 4A and B). Two hours following the 6th dose, mice were euthanized for tumor analysis. […] To confirm the apoptotic cell death, sections from A4573 tumors were stained with TUNEL (Figures 4D) and there was a 3 – 4 fold increase in TUNEL-positive cells treated with (S)-YK-4-279 compared to (R)-YK-R-279 treated tumors (Figure 4E). […] Levels of each enantiomer were measured in tumor samples and (S)-YK-4-279 levels correlated with clinical regression (Supplemental Figure 2B–E).
as §1, with “collected. For the pharmacodynamics study mice were randomized and received 6 doses treatment with vehicle control (0.25% Lecithin solution or DMSO), (S)-YK-4-279, (R)-YK-4-279 or racemic YK-4-279 at a dose of 400 mg/kg twice a day (BID). Mice were euthanized after 2 hours of last 6th dosing and primary tumors were collected.” for “collected.”

[3] = test system: A4573 cells; test: Time point re-plating (colony formation) assay; format: cell-based; settings: for Colony counts: then replated without YK-4-279
Description: We determined the replating efficiency of A4573 cells after 12–84 hours of treatment with 3 ¼M YK-4-279. Cells were treated for the indicated exposure time then replated without YK-4-279 to assay for colony formation (Figure 1A).
A4573 cells were plated at a density of 2×10^5 cells/dish in 60 mm dishes and incubated for 8 hours before treatment start with 3 ¼M racemic YK-4-279. Cells were removed with trypsin at their respective treatment time, cell suspensions were centrifuged, and cells were resuspended in 500 ¼l of media. One hundred microliters of cell suspension was plated in each 10 cm dish (triplicates) with 12 ml of media. Dishes were incubated for 1 week before staining with crystal violet stain. Colonies were counted using Nikon NIS Elements BR Software.

[4] = A4573 cells, 3 ¼M YK-4-279, 84 hours exposure

| SMILES | Caveolin-1 immunohistochemical staining [1] | Tumor histology (hematoxylin and eosin) [2] | Regression of tumor volume over 3 days [2] | Decrease in colony growth between the 24 and 36 hour time points ([3]; A4573 cells, 3 ¼M YK-4-279) [fold] | Colony counts ([3]; A4573 cells, 3 ¼M YK-4-279, 24 hour exposure) [colonies] | Colony counts ([3]; A4573 cells, 3 ¼M YK-4-279, 72 hours exposure) [colonies] | Drop in colonies from the 24 hour time point [3, 4] [%] | Colony counts [3, 4] [colonies] | Growth of surviving colonies replated in continuous presence of compound ([3]; colonies from 72 and 84 hours harvested and replated in continuous presence of 3 ¼M YK-4-279) | Xenograft growth less than vehicle control ([2]; A4573 xenograft mice, BID IP racemic mixture (375 mg/kg in text, 400 mg/kg in Figure 3 legend), p=0.04) [%] |
| --- | --- | --- | --- | --- | --- | --- | --- | --- | --- | --- |
| COc1ccc(C(=O)C[C@]2(O)C(=O)Nc3c(Cl)ccc(Cl)c32)cc1 [(R)-YK-4-279] | expected membrane caveolin-1 expression | healthy tumor cells, but fewer mitotic figures than the DMSO control | tumors grew | – | – | – | – | – | – | – |
| COc1ccc(C(=O)CC2(O)C(=O)Nc3c(Cl)ccc(Cl)c32)cc1 (stereo not shown) [YK-4-279] | reduced caveolin-1 staining | vacuolar cell death and nuclear fragmentation consistent with apoptosis | 25–30% | 3 | 2229±101 | 53 | 98.9 | 25±12 | no growth was observed | 70 |

From article PMC3964211, “Pharmacokinetic modeling optimizes inhibition of the ‘undruggable’ EWS-FLI1 transcription factor in Ewing Sarcoma” (Oncotarget, 2013)
